Results as given in patent publication US20230190690A1, “[…] AND/OR […] FOR CORONAVIRUS DISEASE 2019 (COVID-19)” (NEOPHARMA JAPAN CO., LTD., priority 2020, published 2023).
pIC50: −log10 of the molar value. Read-outs that look alike come from different tables or passages of the source.

Key:
[1] = tested on: SARS-CoV-2; test: microbe, parasite or virus in culture; type: cell-based, SARS-CoV-2 (Caco-2, human colon cancer cells)
[2] = tested on: VeroE6 cells, Caco-2 cells; test: Cytotoxic effect in VeroE6 and Caco-2 cells; type: cell-based; conditions: all concentration ranges tested (up to 2000 uM)
Description: In order to confirm the dose dependence in the inhibitory effect on SARS-CoV-2 infection and/or proliferation, the agents at each concentration were tested.

[3] = tested on: coronavirus disease 2019 (COVID-19); test: Treatment example: intake of supplement capsules by a patient with COVID-19 symptoms; type: in vivo, human; conditions: 1 patient; intake of capsules over two days
[4] = tested on: SARS-CoV-2; test: microbe, parasite or virus in culture; type: cell-based, SARS-CoV-2 (VeroE6, African green monkey kidney cells)

Compound | SARS-CoV-2 infection and/or proliferation [1] | pIC50 ([1]; Severe acute respiratory syndrome coronavirus 2, Caco-2 cells, FIG. 6, read-out: IC50 of inhibition of SARS-CoV-2 infection and/or proliferation) | cytotoxicity [2] | various symptoms of coronavirus disease 2019 (COVID-19) [3] | pIC50 ([4]; Severe acute respiratory syndrome coronavirus 2, Vero C1008, VeroE6 cells, FIG. 5, read-out: IC50 of inhibition of SARS-CoV-2 infection and/or proliferation) | infection with SARS-CoV-2 ([4]; VeroE6, number of seeded cells 1×10^4 cells/well) | inhibitory effect on SARS-CoV-2 infection and/or proliferation, dose dependence ([4]; VeroE6 cells, FIG. 5)
NCC(=O)CCC(=O)O [5-ALA, 5-aminolevulinic acid] | strongly inhibited | 4.41 | did not show significant cytotoxicity | remarkably improved | 3.24 | significantly inhibited | –
sodium ferrous citrate [SFC] | – | – | – | – | – | – | no inhibitory effect
